Here are results for ten molecules from US20260174878A1, “IRAK4 DEGRADATION AGENT AND USE THEREOF” (LEADINGTAC PHARMACEUTICAL (SHAOXING) CO., LTD., priority 2022, published 2026).

The target in test [1] is T1, IRAK4 protein in normal human PBMCs (Homo sapiens, UniProt Q9NWZ3).
T1 construct: host or cells: normal human PBMCs
T1 sequence (Q9NWZ3 1-460): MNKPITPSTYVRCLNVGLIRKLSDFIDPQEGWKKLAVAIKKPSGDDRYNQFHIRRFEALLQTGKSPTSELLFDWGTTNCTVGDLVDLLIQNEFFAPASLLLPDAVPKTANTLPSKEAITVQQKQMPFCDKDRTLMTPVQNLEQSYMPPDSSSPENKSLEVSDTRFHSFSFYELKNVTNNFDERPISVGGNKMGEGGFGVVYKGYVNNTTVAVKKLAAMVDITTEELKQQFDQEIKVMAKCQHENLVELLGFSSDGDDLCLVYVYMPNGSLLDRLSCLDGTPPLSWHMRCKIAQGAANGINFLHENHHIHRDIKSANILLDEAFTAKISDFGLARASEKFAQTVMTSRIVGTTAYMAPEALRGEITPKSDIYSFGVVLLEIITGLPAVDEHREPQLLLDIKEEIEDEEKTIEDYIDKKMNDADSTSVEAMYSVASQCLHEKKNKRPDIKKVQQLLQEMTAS
The test can be described thus: Degradation of IRAK4 protein in normal human PBMCs (AlphaLISA). It is filed as cell-based. Particulars: 24 h incubation. As for the experimental part:
The cryopreserved normal human PBMCs (Milestone, PB010C) were thawed and resuspended in RPMI 1640 medium (Gibco, A1049101) supplemented with 10% fetal bovine serum (Gibco, 10099141), 100 U/mL penicillin, and 100 µg/mL streptomycin (Gibco, 15140122). After 0.95 mL of cells were plated in each well of a 24-well cell culture plate, 50 µL of diluted compound solution was added to corresponding wells with cells, such that the final concentration of the compound fell within the range of 0.01-3000 nM. The final concentration of DMSO was 0.25%. After the compound-treated cell plate was incubated in an incubator at 37° C. with 5% CO2 for 24 h, the cells were collected into 1.5 mL centrifuge tubes and centrifuged at 1000 rpm at 4° C. for 5 min. The cell pellets were washed twice with 1×DPBS. The resuspended cells were lysed with 100 μL of lysis buffer, left to stand on ice for 30 min, and then centrifuged at 14000 g at 4° C. for 10 min. The samples of the cell lysate supernatant after centrifugation were cryopreserved at −80° C. before testing. The cell lysis buffer was a Western and IP cell lysis buffer (Beyotime, P0013) supplemented with 1 mM phenylmethylsulfonyl fluoride and a protease inhibitor cocktail (Beyotime, P1008).
The total protein concentrations of the cell lysate samples were determined using a BCA protein quantification kit (Tiangen, PA115-02).
The prepared PBMC lysate samples were assayed for IRAK4 concentrations using a human IRAK4 AlphaLISA assay kit (PerkinElmer, AL3117C) to determine the degradation effects of the compounds on IRAK4. The method is as follows:
5 μL of each of IRAK4 standard solutions with different concentrations and test samples of cell lysate supernatant were added to a white 384-well plate (PerkinElmer, 6007299), and then 10 μL of 5× anti-IRAK4 […] beads was added to each well (final concentration of 10 μg/mL). The plate was incubated at room temperature for 30 min. Then 10 μL of 5× biotin-labeled anti-IRAK4 antibody was added to each well (final concentration of 1 nM), and the plate was incubated at room temperature for another 60 min. Finally, 25 μL of 2× streptavidin-labeled donor beads was added to each well (final concentration of 40 μg/mL), and the plate was incubated at room temperature for another 30 min. After the incubation was completed, AlphaLISA signal values were measured on a microplate reader EnVision (PerkinElmer, 2105) in the AlphaScreen standard mode. A standard curve was plotted from the AlphaLISA signal values of the IRAK4 standard solutions with different concentrations, and the IRAK4 concentration of each cell lysate supernatant was determined according to the corresponding concentrations on the standard curve for the AlphaLISA signal values of the test samples and by performing corresponding correction on the total protein concentration of each sample obtained by BCA quantification. The degradation rates for the compounds at each concentration were calculated by comparing the IRAK4 concentration with that of the control group. Then non-linear curve fittings for logarithmic concentration-inhibition rate were performed using GraphPad Prism 8, and the DC50 and Dmax values of the compound were obtained.

Test [2] deals with T2, IRAK4 kinase (Homo sapiens, UniProt Q9NWZ3).
T2 construct: purchased Carna
T2 sequence (Q9NWZ3 1-460): T1 sequence (Q9NWZ3 1-460)
Kind of test: IRAK4 kinase activity test (KinEASE-STK S1 HTRF kit). Conditions: IRAK4 kinase 2.5 nM, 7 μM adenosine triphosphate, 37° C. 120 min. It counts as biochemical. As for the experimental part: Then 2.5 nM IRAK4 kinase (Carna), 1 μM biotinylated polypeptide substrate (Cisbio), and 7 μM adenosine triphosphate (Sigma-Aldrich) were sequentially added, and the mixtures were incubated at 37° C. for 120 min. Subsequently, an anti-phosphoserine/threonine antibody (Cisbio) conjugated with a europium element compound and streptavidin conjugated with a modified XL665 (Cisbio) were added to the reaction system to stop the reaction. After 1 h of incubation at room temperature, the fluorescence intensity of each well was measured at the excitation wavelength of 337 nm and the emission wavelengths of 620 nm and 665 nm with a microplate reader EnVision (PerkinElmer) in the HTRF mode, and Ratio values were calculated using the formula: Ratio=(665 nm/620 nm)×10^4. The inhibition rates of the compounds at each concentration were calculated by comparison with the fluorescence intensity ratio of the control group. Then non-linear curve fittings for logarithmic concentration-inhibition rate were performed using GraphPad Prism 7, and the IC50 values of the compounds were obtained.

`CN(CCC1CCN(C(=O)c2ccc(Cl)c(N3CCC(=O)NC3=O)c2)CC1)C[C@H]1CC[C@H](n2cc(NC(=O)c3cnn4ccc(N5CCOCC5)nc34)c(C(F)F)n2)CC1` [Example 9, N-(1-((1R,4R)-4-(((2-(1-(4-chloro-3-(2,4-dioxotetrahydropyrimidin-1(2H)-yl)benzoyl)piperidin-4-yl)ethyl)(methyl)amino)methyl)cyclohexyl)-3-(difluoromethyl)-1H-pyrazol-4-yl)-5-morpholinopyrazolo [1,5-a]pyrimidine-3-carboxamide]: in test [1], the DC50 (commonly the concentration giving 50% degradation) is 0.39 nM and the greatest degradation seen (Dmax) (commonly the greatest extent of degradation seen) stood at 98%. For the same molecule, the 50% inhibitory concentration (IC50) (commonly the concentration that inhibits the measured activity by half) in test [2] was determined as 4.64 nM.

`CN(CCC1CCN(C(=O)c2ccc(Cl)c(N3CCC(=O)NC3=O)c2)CC1)C[C@H]1CC[C@H](n2cc(NC(=O)c3cnn4ccc(N5CC6CCC(C5)O6)nc34)c(C(F)F)n2)CC1` [Example 10, 5-(8-oxa-3-azabicyclo[3.2.1]octan-3-yl)-N-(1-((1R,4R)-4-(((2-(1-(4-chloro-3-(2,4-dioxotetrahydropyrimidin-1(2H)-yl)benzoyl)piperidin-4-yl)ethyl)(methyl)amino)methyl)cyclohexyl)-3-(difluoromethyl)-1H-pyrazol-4-yl)pyrazolo[1,5-a]pyrimidine-3-carboxamide]: in test [1], the 50% degradation concentration (DC50) was determined as 0.67 nM and the Dmax came to 97.6%. For the same molecule, in test [2], the IC50 turned out to be 8.05 nM.

Consider `O=C1CCN(c2cc(C(=O)N3CCC4(CCN(C[C@H]5CC[C@H](n6cc(NC(=O)c7cnn8ccc(N9CC%10CCC(C9)O%10)nc78)c(C(F)F)n6)CC5)CC4)CC3)ccc2Cl)C(=O)N1` [Example 11, 5-(8-oxa-3-azabicyclo[3.2.1]octan-3-yl)-N-(1-((1R,4R)-4-((9-(4-chloro-3-(2,4-dioxotetrahydropyrimidin-1(2H)-yl)benzoyl)-3,9-diazaspiro[5.5]undecan-3-yl)methyl)cyclohexyl)-3-(difluoromethyl)-1H-pyrazol-4-yl)pyrazolo[1,5-a]pyrimidine-3-carboxamide], for which, in test [1], the half-maximal degradation concentration (DC50) stood at 0.88 nM and the Dmax was determined as 97.4%. In test [2], this molecule displayed an IC50 of 7.74 nM.

In test [1], `COc1ccc(C(=O)N2CCC(CCN(C)C[C@H]3CC[C@H](n4cc(NC(=O)c5cnn6ccc(N7CCC[C@H](O)C7)nc56)c(C(F)F)n4)CC3)CC2)cc1N1CCC(=O)NC1=O` [Example 14, N-(3-(difluoromethyl)-1-((1R,4S)-4-(((2-(1-(3-(2,4-dioxotetrahydropyrimidin-1(2H)-yl)-4-methoxybenzoyl)piperidin-4-yl)ethyl)(methyl)amino)methyl)cyclohexyl)-1H-pyrazol-4-yl)-5-((S)-3-hydroxypiperidin-1-yl)pyrazolo[1,5-a]pyrimidine-3-carboxamide] registered a DC50 of 0.27 nM and a maximal degradation (Dmax) of 98.2%. The molecule also registered an IC50 in test [2] of 3.36 nM.

In the case of `COc1ccc(C(=O)N2CCC(CCN(C)C[C@H]3CC[C@H](n4cc(NC(=O)c5cnn6ccc(N7CCC[C@H](N)C7)nc56)c(C(F)F)n4)CC3)CC2)cc1N1CCC(=O)NC1=O` [Example 15, 5-((S)-3-aminopiperidin-1-yl)-N-(3-(difluoromethyl)-1-((1R,4S)-4-(((2-(1-(3-(2,4-dioxotetrahydropyrimidin-1(2H)-yl)-4-methoxybenzoyl)piperidin-4-yl)ethyl)(methyl)amino)methyl)cyclohexyl)-1H-pyrazol-4-yl)pyrazolo[1,5-a]pyrimidine-3-carboxamide], in test [1], half-maximal degradation (DC50) was put at 1.49 nM and the Dmax is 98.8%. In test [2], it took 3.86 nM to reach half-maximal inhibition (IC50).

In test [1], `CN(CCC1CCN(C(=O)c2ccc(F)c(C3CCC(=O)NC3=O)c2)CC1)C(=O)[C@H]1CC[C@H](n2cc(NC(=O)c3cnn4ccc(N5CCOCC5)nc34)c(C(F)F)n2)CC1` (stereo partly drawn) [Example 17] yielded a DC50 of 0.92 nM and a Dmax of 98.9%. Further, the IC50 in test [2] is 9.82 nM.

Regarding `CN(CCC1CCN(C(=O)c2ccc(Cl)c(N3CCC(=O)NC3=O)c2)CC1)C[C@H]1CC[C@H](n2cc(NC(=O)c3cnn4ccc(N5CCC[C@H](N)C5)nc34)c(C(F)F)n2)CC1` [Example 18, 5-((S)-3-aminopiperidin-1-yl)-N-(1-((1R,4S)-4-(((2-(1-(4-chloro-3-(2,4-dioxotetrahydropyrimidin-1(2H)-yl)benzoyl)piperidin-4-yl)ethyl)(methyl)amino)methyl)cyclohexyl)-3-(difluoromethyl)-1H-pyrazol-4-yl)pyrazolo[1,5-a]pyrimidine-3-carboxamide], in test [1], the 50% degradation concentration (DC50) is 0.77 nM and the Dmax came out at 99.5%. This molecule showed an IC50 in test [2] of 7.86 nM.

In test [1], `O=C1CCN(c2cc(C(=O)N3CCC4(CCN(C[C@H]5CC[C@H](n6cc(NC(=O)c7cnn8ccc(N9CC%10(COC%10)C9)nc78)c(C(F)F)n6)CC5)CC4)CC3)ccc2Cl)C(=O)N1` [Example 19, N-(1-((1R,4R)-4-((9-(4-chloro-3-(2,4-dioxotetrahydropyrimidin-1(2H)-yl)benzoyl)-3,9-diazaspiro[5.5]undecan-3-yl)methyl)cyclohexyl)-3-(difluoromethyl)-1H-pyrazol-4-yl)-5-(2-oxa-6-azaspiro[3.3]heptan-6-yl)pyrazolo[1,5-a]pyrimidine-3-carboxamide] yielded a 50% degradation concentration (DC50) of 0.47 nM and a maximal degradation (Dmax) of 98%. Besides, inhibition in test [2] was half-maximal at 36.1 nM (IC50).

In test [1], `Cc1ccc(C(=O)N2CCC3(CCN(C[C@H]4CC[C@H](n5cc(NC(=O)c6cnn7ccc(N8CCC[C@H](O)C8)nc67)c(C(F)F)n5)CC4)CC3)CC2)cc1N1CCC(=O)NC1=O` [Example 27, N-(3-(difluoromethyl)-1-((1R,4S)-4-((9-(3-(2,4-dioxotetrahydropyrimidin-1(2H)-yl)-4-methylbenzoyl)-3,9-diazaspiro[5.5]undecan-3-yl)methyl)cyclohexyl)-1H-pyrazol-4-yl)-5-((S)-3-hydroxypiperidin-1-yl)pyrazolo[1,5-a]pyrimidine-3-carboxamide] came in with a DC50 of 0.28 nM and a Dmax of 97.8%. The same molecule returned an IC50 in test [2] of 2.98 nM.

With `COc1ccc(C(=O)N2CCC(CCN(C)C[C@H]3CC[C@H](n4cc(NC(=O)c5cnn6ccc(N7CC8(COC8)C7)nc56)c(C(F)F)n4)CC3)CC2)cc1N1CCC(=O)NC1=O` [Example 32, N-(3-(difluoromethyl)-1-((1R,4R)-4-(((2-(1-(3-(2,4-dioxotetrahydropyrimidin-1(2H)-yl)-4-methoxybenzoyl)piperidin-4-yl)ethyl)(methyl)amino)methyl)cyclohexyl)-1H-pyrazol-4-yl)-5-(2-oxa-6-azaspiro[3.3]heptan-6-yl)pyrazolo[1,5-a]pyrimidine-3-carboxamide], in test [1], it took 1.11 nM to reach half-maximal degradation (DC50) and the maximal degradation (Dmax) worked out at 98.1%. This molecule came in with a half-maximal inhibitory concentration (IC50) in test [2] of 17 nM.
